Test results taken from article PMC9951859, “Investigation of α,ω-Disubstituted Polyamine-Cholic Acid Conjugates Identifies Hyodeoxycholic and Chenodeoxycholic Scaffolds as Non-Toxic, Potent Antimicrobials” (Antibiotics, 2023).

Assays:
S. aureus = assay: ATP release bioluminescence assay; type: cell-based, Staphylococcus aureus; conditions: followed over 30 min after exposure, CTAB (1%) positive control
Procedure: Solutions of the test compound 7e were prepared in DMSO at various concentrations. A suspension of growing S. aureus to be studied in Muller-Hinton II broth was prepared and incubated at 37 °C. An aliquot (90 µL) of this suspension was added to 10 µL of test compound solution and vortexed for 10 s. Luciferin–luciferase reagent (Yelen, France; 50 µL) was immediately added to this mixture, and luminescent signal quantified with an Infinite M200 microplate reader (Tecan) over a 30 min period; ATP concentration was quantified using internal sample addition. A similar procedure was used for the CTAB positive control.

[1] = Cytotoxicity assay on HEK293; type: cell-based, human; conditions: human, HEK293 human embryonic kidney cells; concentration at 50% cytotoxicity on HEK293; mean (n = 2); top dose tested 32 μg/mL
Procedure: (§1) Cytotoxicity assays were conducted using the protocols previously reported.

P. aeruginosa ATCC 27853 = assay: Antibiotic enhancement of doxycycline; type: cell-based, Pseudomonas aeruginosa; conditions: doxycycline at 2 μg/mL
Procedure: (§2) Restoring enhancer concentrations were determined with an inoculum of 5 × 10^5 CFU in […] of MH broth containing two-fold serial dilutions of each derivative in the presence of either doxycycline or erythromycin at 2 μg/mL. […] These measurements were independently repeated in triplicate.

[2] = system: Klebsiella pneumoniae ATCC 700603; assay: Antimicrobial MIC assay (CO-ADD) against K. pneumoniae; type: cell-based; conditions: Klebsiella pneumoniae, ATCC700603, read-out: MIC K.p.
Source text: (§3) Antimicrobial evaluation against S. aureus (MRSA) (ATCC 43300), E. coli (ATCC 25922), K. pneumoniae (ATCC 700603), A. baumannii (ATCC 19606), C. albicans (ATCC 90028), and C. neoformans (ATCC 208821) was undertaken at the Community for Open Antimicrobial Drug Discovery at The University of Queensland (Australia) according to their standard protocols as reported previously.

human red blood cells = assay: Hemolytic assay; type: cell-based; conditions: concentration at 10% hemolytic activity on human red blood cells; mean (n = 2); top dose tested 32 μg/mL
Procedure: Hemolytic assays were conducted using the protocols previously reported.

E. coli ATCC 25922 = assay: Antibiotic enhancement of erythromycin; type: cell-based, Escherichia coli; conditions: erythromycin at 2 μg/mL
Procedure: as §2

[3] = system: Staphylococcus aureus ATCC 43300 (MRSA); assay: Antimicrobial MIC assay (CO-ADD) against S. aureus MRSA; type: cell-based; conditions: Staphylococcus aureus, read-out: MIC S.a.
Source text: as §3

[4] = system: Pseudomonas aeruginosa ATCC 27853; assay: Antimicrobial MIC assay (CO-ADD) against P. aeruginosa; type: cell-based; conditions: Pseudomonas aeruginosa, ATCC27853, read-out: MIC P.a.
[5] = system: Escherichia coli ATCC 25922; assay: Antimicrobial MIC assay (CO-ADD) against E. coli; type: cell-based; conditions: Escherichia coli, ATCC25922, read-out: MIC E.c.
Source text: as §3

[6] = system: Acinetobacter baumannii ATCC 19606; assay: Antimicrobial MIC assay (CO-ADD) against A. baumannii; type: cell-based; conditions: Acinetobacter baumannii, ATCC19606, read-out: MIC A.b.
Source text: as §3

[7] = system: Cryptococcus neoformans ATCC 208821; assay: Antimicrobial MIC assay (CO-ADD) against C. neoformans; type: cell-based; conditions: Cryptococcus neoformans, ATCC208821, read-out: MIC C.n.
Source text: as §3

[8] = system: Candida albicans ATCC 90028; assay: Antimicrobial MIC assay (CO-ADD) against C. albicans; type: cell-based; conditions: Candida albicans, ATCC90028, read-out: MIC C.a., Candida albicans ATCC 90028; mean (n = 2)
Source text: as §3

[9] = system: HEK293 human embryonic kidney cells; assay: Cytotoxicity assay on HEK293; type: cell-based; conditions: concentration at 50% cytotoxicity on HEK293; mean (n = 2); top dose tested 32 μg/mL
Procedure: as §1

Compound | ATP release (extracellular ATP, bioluminescence) (S. aureus) | IC50 [1] [µM] | enhancement of antibiotic activity of doxycycline (P. aeruginosa ATCC 27853) | MIC [2] [µM] | Hemolysis (HC10) (human red blood cells) [µM] | enhancement of antibiotic activity of erythromycin (E. coli ATCC 25922) | MIC [3] [µM] | MIC [4] [µM] | MIC [5] [µM] | MIC [6] [µM] | MIC [7] [µM] | MIC [8] [µM] | Cytotoxicity (IC50) [9]
CCCCCCCCCCCCCCCC[N+](C)(C)C [CTAB, cetyltrimethylammonium bromide, reference compound] | dramatically disrupted the S. aureus membrane after 2 min | – | – | – | – | – | – | – | – | – | – | – | –
C[C@H](CCC(=O)NCCCNCCCCNCCCNC(=O)CC[C@@H](C)[C@H]1CC[C@H]2[C@@H]3C[C@H](O)[C@@H]4C[C@H](O)CC[C@]4(C)[C@H]3CC[C@]12C)[C@H]1CC[C@H]2[C@@H]3C[C@H](O)[C@@H]4C[C@H](O)CC[C@]4(C)[C@H]3CC[C@]12C.O=C(O)C(F)(F)F.O=C(O)C(F)(F)F [Compound 7a, N^1,N^4-Bis(3-((R)-4-((3R,5R,6S,8S,9S,10R,13R,14S,17R)-3,6-dihydroxy-10,13-dimethylhexadecahydro-1H-cyclopenta[a]phenanthren-17-yl)pentanamido)propyl)butane-1,4-diaminium 2,2,2-trifluoroacetate] | – | > 27 | No enhancement was observed | > 27 | >27 | No enhancement was observed | 3.4 | > 27 | > 27 | > 27 | ≤ 0.21 | 14 | –
C[C@H](CCC(=O)NCCCNCCCCCCCNCCCNC(=O)CC[C@@H](C)[C@H]1CC[C@H]2[C@@H]3C[C@H](O)[C@@H]4C[C@H](O)CC[C@]4(C)[C@H]3CC[C@]12C)[C@H]1CC[C@H]2[C@@H]3C[C@H](O)[C@@H]4C[C@H](O)CC[C@]4(C)[C@H]3CC[C@]12C.O=C(O)C(F)(F)F.O=C(O)C(F)(F)F [Compound 7c, N^1,N^7-Bis(3-((R)-4-((3R,5R,6S,8S,9S,10R,13R,14S,17R)-3,6-dihydroxy-10,13-dimethylhexadecahydro-1H-cyclopenta[a]phenanthren-17-yl)pentanamido)propyl)heptane-1,7-diaminium 2,2,2-trifluoroacetate] | – | > 26 | No enhancement was observed | > 26 | >26 | No enhancement was observed | ≤ 0.21 | > 26 | > 26 | > 26 | ≤ 0.21 | 13 | –
C[C@H](CCC(=O)NCCCNCCCCCCCCNCCCNC(=O)CC[C@@H](C)[C@H]1CC[C@H]2[C@@H]3C[C@H](O)[C@@H]4C[C@H](O)CC[C@]4(C)[C@H]3CC[C@]12C)[C@H]1CC[C@H]2[C@@H]3C[C@H](O)[C@@H]4C[C@H](O)CC[C@]4(C)[C@H]3CC[C@]12C.O=C(O)C(F)(F)F.O=C(O)C(F)(F)F [Compound 7d, N^1,N^8-Bis(3-((R)-4-((3R,5R,6S,8S,9S,10R,13R,14S,17R)-3,6-dihydroxy-10,13-dimethylhexadecahydro-1H-cyclopenta[a]phenanthren-17-yl)pentanamido)propyl)octane-1,8-diaminium 2,2,2-trifluoroacetate] | – | > 26 | No enhancement was observed | > 26 | >26 | No enhancement was observed | ≤ 0.2 | > 26 | > 26 | > 26 | ≤ 0.2 | 13 | –
C[C@H](CCC(=O)NCCCNCCCCCCCCCCCCNCCCNC(=O)CC[C@@H](C)[C@H]1CC[C@H]2[C@@H]3[C@@H](O)C[C@@H]4C[C@H](O)CC[C@]4(C)[C@H]3CC[C@]12C)[C@H]1CC[C@H]2[C@@H]3[C@@H](O)C[C@@H]4C[C@H](O)CC[C@]4(C)[C@H]3CC[C@]12C.O=C(O)C(F)(F)F.O=C(O)C(F)(F)F [Compound 8f, N^1,N^12-Bis(3-((R)-4-((3R,5S,7S,8R,9S,10S,13R,14S,17R)-3,7-dihydroxy-10,13-dimethylhexadecahydro-1H-cyclopenta[a]phenanthren-17-yl)pentanamido)propyl)dodecane-1,12-diaminium 2,2,2-trifluoroacetate] | – | 8.4 | – | > 25 | 1.4 | – | ≤ 0.19 | > 25 | > 25 | > 25 | ≤ 0.19 | 3.1 | exhibiting cytotoxic properties
C[C@H](CCC(=O)NCCCNCCCCNCCCNC(=O)CC[C@@H](C)[C@H]1CC[C@H]2[C@@H]3[C@H](O)C[C@@H]4C[C@H](O)CC[C@]4(C)[C@H]3CC[C@]12C)[C@H]1CC[C@H]2[C@@H]3[C@H](O)C[C@@H]4C[C@H](O)CC[C@]4(C)[C@H]3CC[C@]12C.O=C(O)C(F)(F)F.O=C(O)C(F)(F)F [Compound 9a, N^1,N^4-Bis(3-((R)-4-((3R,5S,7R,8R,9S,10S,13R,14S,17R)-3,7-dihydroxy-10,13-dimethylhexadecahydro-1H-cyclopenta[a]phenanthren-17-yl)pentanamido)propyl)butane-1,4-diaminium 2,2,2-trifluoroacetate] | – | 27 | – | > 27 | – | – | ≤ 0.21 | > 27 | 6.8 | 27 | ≤ 0.21 | ≤ 0.21 | devoid of cytotoxicity
